molecular target: TNAP (Homo sapiens (Human), UniProt P05186); assay: TNAP (PPi) inhibition assay, pyrophosphate as substrate; assay type: biochemical; conditions: not given
Procedure, shortened: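 Secreted epitope-tagged human TNAP from transiently transfected COS-1 cells, dialyzed to remove phosphate. Inhibitors tested kinetically at pH 7.4 with PPi as substrate; released phosphate quantified colorimetrically with Biomol Green reagent.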

| SMILES | IC50 [nM] |
| --- | --- |
| COc1ccc(OC)c(S(=O)(=O)Nc2cnc3ccc(C(=O)NC4CCCCC4)cc3c2)c1 [Example IX-16, 3-(2,5-Dimethoxy-benzenesulfonylamino)-quinoline-6-carboxylic Acid Cyclohexylamide] | < 100 |
| CCN(c1cnc2ccccc2c1)S(=O)(=O)c1cc(Br)ccc1OC [Example VII-2, 5-Bromo-2-methoxy-N-ethyl-N-(quinolin-3-yl)benzenesulfonamide] | > 1000 |
| COc1ccc(OC)c(S(=O)(=O)Nc2cncc(-c3cnccn3)c2)c1 [Example III-94, 2,5-Dimethoxy-N-(5-(pyrazin-2-yl)pyridin-3-yl)benzenesulfonamide] | < 100 |
| COc1ccc(-c2cncc(NS(=O)(=O)c3cc(Br)ccc3OC)c2)c(OC)c1 [Example III-56, 5-Bromo-N-(5-(2,4-dimethoxyphenyl)pyridin-3-yl)-2-methoxybenzenesulfonamide] | < 100 |
| COc1ccc(OC)c(S(=O)(=O)Nc2ccc(NCCN(C)C)nc2)c1 [Example VIII-14, N-(6-((2-(Dimethylamino)ethyl)amino)pyridin-3-yl)-2,5-dimethoxybenzenesulfonamide] | > 1000 |
| COc1ccc(OC)c(S(=O)(=O)Nc2cncc(-c3ccco3)c2)c1 [Example III-67, N-(5-(Furan-2-yl)pyridin-3-yl)-2,5-dimethoxybenzenesulfonamide] | < 100 |
| COc1c(Cl)cccc1S(=O)(=O)Nc1cccnc1 [Example I-13, 3-Chloro-2-methoxy-N-pyridin-3-yl-benzenesulfonamide] | > 1000 |
| COc1ccc(Br)cc1S(=O)(=O)Nc1cncc(-c2ccccc2Cl)c1 [Example III-41, 5-Bromo-N-[5-(2-chloro-phenyl)-pyridin-3-yl]-2-methoxy-benzenesulfonamide] | < 100 |
| COc1ccc(OC)c(S(=O)(=O)Nc2cscn2)c1 | > 1000 |
| COc1ccc(OC)c(S(=O)(=O)N(Cc2ccccc2)c2cnc3ccccc3c2)c1 [Example VII-16, 2,5-Dimethoxy-N-benzyl-N-(quinolin-3-yl)benzenesulfonamide] | > 1000 |
| COc1ccc(OC(F)(F)F)cc1S(=O)(=O)Nc1cncc(-c2cncs2)c1 [Example XI-27, 2-Methoxy-N-(5-(thiazol-5-yl)pyridin-3-yl)-5-(trifluoromethoxy)benzenesulfonamide] | 100 to 1000 |
| COCCNC(=O)c1ccc(OC)c(S(=O)(=O)Nc2cccnc2)c1 [Example I-21, 4-Methoxy-N-(2-methoxy-ethyl)-3-(pyridin-3-ylsulfamoyl)-benzamide] | > 1000 |
| O=S(=O)(Nc1cncc(-c2cscn2)c1)c1cc(Cl)ccc1OC(F)(F)F [Example XI-28, 5-Chloro-N-(5-(thiazol-4-yl)pyridin-3-yl)-2-(trifluoromethoxy)benzenesulfonamide] | < 100 |
| CCCOC(=O)c1cncc(NS(=O)(=O)c2cc(Cl)ccc2OC)c1 [Example IV-8, Propyl 5-(5-chloro-2-methoxyphenylsulfonamido)nicotinate] | < 100 |
| O=C(OC1CCCCC1)c1cncc(NS(=O)(=O)c2cc(Br)ccc2OC(F)(F)F)c1 [Example XII-11, Cyclohexyl 5-(5-bromo-2-(trifluoromethoxy)phenylsulfonamido)nicotinate] | < 100 |
| COc1ccc(Br)cc1S(=O)(=O)Nc1cncc(C(=O)NCCN(C)C)c1 [Example IV-22, 5-(5-Bromo-2-methoxyphenylsulfonamido)-N-(2-(dimethylamino)ethyl)nicotinamide] | 100 to 1000 |
| COc1ccc(C(=O)NCCN(C)C)cc1S(=O)(=O)Nc1cnc2ccccc2c1 [Example II-21, N-(2-Dimethylamino-ethyl)-4-methoxy-3-(quinolin-3-ylsulfamoyl)-benzamide] | 100 to 1000 |
| COC(=O)c1cncc(NS(=O)(=O)c2cc(Br)ccc2OC)c1 [Example IV-1, Methyl 5-(5-bromo-2-methoxyphenylsulfonamido)nicotinate] | < 100 |
| COCCNC(=O)c1cncc(NS(=O)(=O)c2cc(OC)ccc2OC)c1 [Example IV-41, 5-(2,5-Dimethoxyphenylsulfonamido)-N-(2-methoxyethyl)nicotinamide] | 100 to 1000 |

molecular target: TNAP human plasma (Homo sapiens, UniProt P05186); assay: not given; assay type: biochemical; conditions: substrate pNPP

| SMILES | IC50 [µM] |
| --- | --- |
| COc1ccc(OC)c(S(=O)(=O)Nc2cnc3ccc(C(=O)NC4CCCCC4)cc3c2)c1 [Example IX-16, 3-(2,5-Dimethoxy-benzenesulfonylamino)-quinoline-6-carboxylic Acid Cyclohexylamide] | < 5 |

Reference: US10370333B2 (Sanford Burnham Prebys Medical Discovery Institute, priority 2012, dated 2019)
